Results published in patent US20150359794A1, “IMPAIRMENT OF THE LARGE RIBOSOMAL SUBUNIT PROTEIN RPL24 BY DEPLETION OR ACETYLATION” (Buck Institute for Research on Aging, priority 2014, published 2015).

Columns and labels:
Type in all cases: cell-based, human
tubulin = experiment: Western blot for tubulin acetylation in SKBR3 cells; conditions: western blot (FIG. 4c,d)
Description: Like TSA, the HDAC6 (class IIb)-selective inhibitors, Tubacin and Compound 101, as well as HDAC6 siRNA, all induce tubulin acetylation as expected as well as ribosomal protein acetylation, including the band that co-migrates with RPL24 (FIG. 4c,d, indicated by arrows). […] Thus, the tubulin acetylating effects of pan-histone deacetylase inhibition, known to be mediated by inhibition or knockdown of HDAC6, correspond to the observed ribosome and RPL24 acetylation responses induced by TSA.
(§1) Cells are lysed in RIPA buffer (10 mM Tris-HCL (pH 8.0), 1 mM EDTA, 0.5 mM EGTA, 1% triton X-100, 0.1% sodium deoxycholate, 0.1% SDS, 140 mM NaCl, 20 mM NaF, Complete EDTA-free protease inhibitor tablets (Roche Diagnostics Corp., Basel, Switzerland) and the phosphatase inhibitor cocktail PhosSTOP (Roche)), the latter two as indicated by the manufacturer's protocol. Equal amounts of protein are diluted in 2× sample buffer. Immunoblots on PVDF (Polyvinyldene Fluoride) membranes are blocked with nonfat milk in tris-buffered saline with 0.05% tween-20 (TBST). The following antibodies are incubated with membranes in 5% nonfat milk in TBST: RPL24 (Proteintech, Chicago, Ill.), Cyclin D1, Rack1, RPL4 (Santa Cruz Biotechnology, Santa Cruz, Calif.), NBS1, GAPDH (EMD Millipore Corporation, Chicago, Ill.), Survivin, β-tubulin, acetyl-lysine, eIF6, acetyl-H2B, H2B, (Cell Signaling Technology, Boston, Mass.), acetyl-tubulin, tubulin (Sigma Aldrich (St. Louis, Mo.))
FIG. 4: Ribosomal protein acetylation is induced by histone deacetylase inhibition. (a-c) SKBR3 cells were treated with the indicated drugs for the indicated period of time. (d) SKBR3 cells were transfected with the indicated siRNAs and allowed to incubate for 72 hours. (a, c, d). The indicated western blots were performed in ribopellets, total cytoplasmic lysates, or nuclear extracts. (b) Mass spectrometry was performed on ribopellets as described in materials and methods and in FIG. 6. The fold change in acetylated peptide to total peptide case by TSA treatment is plotted. Only proteins that underwent at least a two-fold induction upon TSA treatment are shown. Error bars represent the standard error of the mean for three biological replicates.

[1] = tested on: cyclin D1, survivin, and NBS1; experiment: Western blot of cap (eIF4E)-dependently translated proteins; conditions: SKBR3 cells
Method: Since the translation-dependent checkpoint mechanism remains undefined, the impact of RPL24 depletion in a model human breast cancer cell line, SKBR3, sensitive to eIF4E-regulated and cap-dependent translation inhibition was evaluated. Two different RPL24-directed shRNA-expressing lentiviruses were used to decrease RPL24 protein expression by approximately 70% (FIG. 2a). […] Associated with RPL24 depletion and growth inhibition was a marked reduction in the expression of three different eIF4E-regulated and cap-dependent transcripts necessary for cell proliferation (75% reduction in cyclin D1), survival (46% reduction in survivin), and DNA repair and integrity (30% reduction in NBS1). Protein levels of two housekeeping genes not regulated by eIF4E, GAPDH and β-tubulin, were not affected by RPL24 depletion (FIG. 2a).
as §1
FIG. 2: RPL24 knockdown reduces breast cancer cell viability while inhibiting cap (eIF4E)-dependent expression of proliferation, survival and genome stability proteins. SKBR3 cells were infected with lentiviruses expressing a GFP control or RPL24-targeting shRNA. After one week of puromycin selection, cells were plated in 96-well plates for viability assays and lysates were taken in parallel for western blots. (a) Western blots were performed on lysates from an equal number of cells using antibodies toward the indicated proteins. (b) Viability assay readings were taken three hours after plating (day 0) and four days after plating (day 4). The day 4 results were normalized for plating efficiency using the day 0 values. Error bars represent three replicate samples.
FIG. 5: Like RPL24 knockdown, histone deacetylase inhibition reduces 80S assembly while increasing 60S retention of eIF6 and reduces expression of cap (eIF4)-dependently translated proteins (a,b) SKBR3 cells were treated with TSA (1 μM, 2 h). […]

ribosomal proteins = experiment: Mass spectrometry of acetylated ribosomal proteins in polysome pellets; conditions: SKBR3 cells, TSA 1 μM, 2 h or 6 h
Method: Previous studies have shown that pan-inhibitors of class I and II histone deacetylases, like TSA, can rapidly destabilize a number of oncogenic transcripts including HER2 in a cycloheximide-dependent manner (FIG. 9). […] Thus, SKBR3 cells were treated with TSA to evaluate polysome protein acetylation and determine if, similar to RPL24 depletion, histone deacetylase inhibition can affect ribosome assembly dynamics. To detect early (2 h) ribosome or polysome acetylation following histone deacetylase inhibition treatment (1 μM TSA), SKBR3 polysomes were isolated using a discontinuous sucrose gradient as previously described. […]
To prepare polysome samples for mass spectrometry, cells are treated with a histone deacetylase inhibitor and polysome pellets are prepared using a discontinuous sucrose gradient as described above. Protein concentration is determined using the Pierce BCA Protein Assay Kit (Thermo Scientific) and equal amount of protein are trypsin digested. […]
Three biological replicates of polysome or 60S samples are then analyzed by LC-MS/MS using a quadrupole time-of-flight (QqTOF) TripleTOF 5600 mass spectrometer (AB SCIEX, Dublin, Calif.) coupled to an Eksigent (Dublin, Calif.) nanoLC Ultra, 2D plus. […] Quantitative data analysis of acetyl-lysine peptides is performed by integration of selected molecular ion intensities using Skyline MS1 Filtering as previously described. […]

## CC(/C=C/C(=O)NO)=C\[C@@H](C)C(=O)c1ccc(N(C)C)cc1 [TSA, trichostatin-A]
tubulin
  tubulin acetylation: induce
[1]; 8 h treatment
  cyclin D1 levels: reduced
[1]; 24 h treatment
  expression of NBS1 relative to GAPDH and β-tubulin: reduced
  expression of cyclin D1 relative to GAPDH and β-tubulin: reduced
  expression of survivin relative to GAPDH and β-tubulin: reduced
Ribosomal proteins
  number of ribosomal proteins with at least a two-fold induction in acetylation: 15
